Experimental findings from a melting point compilation (Tetko et al.; mined from patent text by program, amines drawn as free bases though some values may be those of a salt) are described below.

Where only a bound is given, the exact number is not on record here.

In turn, `Cc1nc2c(N)nc3ccccc3c2n1OCCOc1ccccc1` gave a melting point of 237 to 239 °C.
As to `CCOC(=O)NC1CCN(Cc2ccccc2)CC1`, the melting point turned out to be 100 °C.
The figure for `CCCCCCCCCCCCC1N(C)c2cccc3cccc(c23)N1C` is 30 to 32 °C; for `CC(O)CN1CCN(c2cccccc2=O)CC1` (stereo not given) it is 92 to 93 °C.
In turn, `N#CCc1c[nH]c2cccc(Cl)c12` gave a melting point of 134 to 136 °C.
With `CSCCn1nc(-c2cc(C(C)(C)C)c(O)c(C(C)(C)C)c2)c2cccnc21`, the melting point is 104 to 106 °C.
As for `CC(=O)OCc1cccc(NC(=O)c2nnn(Cc3ccc(Cl)c(Cl)c3)c2C)c1`, the melting point was more than 70 °C.
`CC(=Cc1ccc(Cl)cc1Cl)[N+](=O)[O-]` returned a melting point of 75 °C.
For `CC(=O)OC1CSC(Oc2cc(-c3cccnc3)ccc2Cl)C(OC(C)=O)C1OC(C)=O` (stereo not given), the melting point is 155 °C.
The figure for `O[C@H]1c2cc(OCc3ccncc3)ccc2OC[C@H]1Cc1cccnc1` (relative stereo) is 100 to 102 °C.
With `COc1cccc(N2CCN(c3c(C)c(C)c4c(c3C)C(N3CCCC3)C(C)(C)O4)CC2)c1` (stereo not given), the melting point fell in the range of 106 to 107 °C.
Take `CCCCn1nc(C(OC)OC)nc1Cc1ccc(-c2ccccc2-c2nnn[nH]2)nc1`: the melting point fell in the range of 113 to 115 °C.
The figure for `COC(=O)CCc1cc2cc(Cl)ccc2n1S(=O)(=O)c1ccc2nc(N)sc2c1` is 217 to 222 °C; for `CCCCCCCCCCOc1ccc(O)c2ccccc12` it is 89 to 90 °C; for `Cc1ccc(C(=O)Nc2ccc(-n3nc(C(F)(F)F)cc3C(F)(F)F)cc2)cc1` it is 225 to 226 °C.
`Cc1cccc(CO)c1CNc1cc(Br)cc2c1nc(C)n2C` yielded a melting point of 215 to 216 °C.
The figure for `Cc1ccc(C(=O)NC2CC2)cc1-c1cc2cnc(NC3CCOCC3)nc2n(C)c1=O` is 239 to 241 °C; for `ClCc1coc(-c2ccc(OCc3ccccc3)cc2)n1` it is 119 to 120 °C; for `CN1C(O)=C(c2ccccc2)N=NC1(C)N` (stereo not given) it is 91 °C.
`O=C(Nc1nccs1)c1nc(-c2ccc(C(F)(F)F)cc2)[nH]c1-c1ccc(F)cc1` gave a melting point of more than 250 °C.
For the compound `O=C1Nc2ccc(NC(=O)c3cccn(-c4ccc(F)cc4)c3=O)cc2/C1=C/c1ccc[nH]1`, the melting point was more than 300 °C.
`COC(=O)c1ccc(OCC(O)c2ccc3c(c2)C(C)(C)CCC3(C)C)cc1O` (stereo not given) came in with a melting point of 133 to 134 °C.
On to `Cn1nc(Cl)c2c(=O)n3c(nc21)SCC3`, for which the melting point came to 222 °C.
The figure for `COc1cc(Nc2c(C#N)cnc3ccc(/C=C/CCN4CCOCC4)cc23)cc(OC)c1OC` is 86 to 87 °C.
As for `COc1cc(NC(=O)CCCCCN2CCN(C3CCCCC3)CC2)c2nccc(C)c2c1`, the melting point was in the range of 109 to 110 °C.
Compound `CC1(C)CCC(C(=O)COS(=O)(=O)c2ccccc2)CC1` displayed a melting point of 34.5 to 35 °C.
`CCOP(=O)(OCC)C(c1ccccc1)N(CCCl)C(N)=O` (stereo not given) had a melting point of 82 °C.
`CS(=O)(=O)c1ccc(Cl)c(C(=O)Nc2ccc(-n3nc(C4CC4)cc3C3CC3)cc2)c1`: the melting point was in the range of 60 to 65 °C.
The figure for `CSc1ccc(C(C)=Cc2ccc3ccccc3c2)cc1` is 161 °C.
On to `O=C(C=Cc1cccc(F)c1)C=Cc1cccc(F)c1`, for which the melting point lay in the range of 96 to 97 °C.
On to `COCOc1cccc2c1CCC2=O`, for which the melting point is 51 to 54 °C.
In turn, `COc1ccc(C2CC(=O)N(C)C2)cc1OC` (stereo not given) displayed a melting point of 69 °C.
As for `COc1cc(Nc2c(C#N)cnc3cc4cc(OCCN5CCC(O)CC5)c(OC)cc4cc23)c(Cl)cc1Cl`, the melting point was in the range of 193 to 198 °C.
On to `COc1ccc2[nH]cc(/C(C#N)=C/c3cccc(C#N)c3)c2c1`, for which the melting point turned out to be 149 °C.
In turn, `CCc1nnc(-c2ccc(OC)c(OC)c2)n1-c1ccc(OC)cc1` returned a melting point of 148 °C.

Usually melting point stands for the temperature, or range, at which the solid turns liquid.
